Source: PubChem BioAssay (NCI)
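Cultured in 96-well plates, cells were exposed to test compound for 48 hours across five concentrations. TGI: total growth inhibition.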

Legend:
Assay in all cases: NCI anticancer screen, dose series, 48 h
[1] = tested on: SK-MEL-5 melanoma
[2] = tested on: OVCAR-3 ovarian
[3] = tested on: DU-145 prostate
[4] = tested on: IGROV1 ovarian
[5] = tested on: T-47D breast
[6] = tested on: NCI/ADR-RES ovarian
[7] = tested on: OVCAR-4 ovarian
[8] = tested on: NCI-H23 lung
[9] = tested on: LOX IMVI melanoma
[10] = tested on: NCI-H460 lung

SMILES | TGI [1] | TGI [2] | TGI [3] | TGI [4] | TGI [5] | TGI [6] | TGI [7] | TGI [8] | TGI [9] | TGI [10]
Oc1ccccc1-c1nn2c(CCCCCCCCc3nnc4sc(-c5ccccc5O)nn34)nnc2s1 | 64.8 µM | 64.3 µM | > 75.5 µM | > 100 µM | 52.1 µM | > 100 µM | > 100 µM | > 100 µM | > 64.1 µM | > 100 µM
O=P1(Oc2ccccc2)NCc2ncccc2O1 (stereo not given) | > 100 µM | > 100 µM | > 100 µM | > 100 µM | > 100 µM | > 100 µM | > 100 µM | > 100 µM | > 100 µM | > 100 µM
O=C1C=C2CC[C@H]3[C@@H]4CC[C@H](Oc5c6ccccc6nc6ccccc56)[C@H]4CC[C@@H]3[C@H]2CC1 | > 100 µM | > 100 µM | > 100 µM | > 100 µM | > 100 µM | > 100 µM | > 100 µM | > 100 µM | > 100 µM | > 100 µM
Cc1cc(C)c2c(=O)cc(-c3ccc4ccccc4c3)[nH]c2n1 | 9.42 µM | > 100 µM | > 100 µM | 99.7 µM | > 100 µM | > 63.9 µM | > 100 µM | > 100 µM | > 74.9 µM | > 100 µM
COc1ccc(/C=C(/c2ccccc2)c2c(C)cc(C)c(/C(=C\c3ccc(OC)cc3)c3ccccc3)c2N=Nc2cc(C)cc(C)c2)cc1 | 37.6 µM | 30.2 µM | > 100 µM | > 100 µM | > 100 µM | > 100 µM | > 100 µM | > 83.8 µM | > 100 µM | > 75.2 µM
CC(=O)C1=C(C)N(c2ccccc2)C2(O)C=CC(=O)C3=C(O)c4ccccc4C(=O)C312 (stereo not given) | 24.9 µM | 11.4 µM | 28.5 µM | 34.3 µM | 76.8 µM | 37.5 µM | 72.1 µM | 46.3 µM | 83 µM | > 100 µM
C[N+](C)(C)C(C1=CCCC1=O)c1ccccc1 (stereo not given) | > 100 µM | > 100 µM | > 100 µM | > 100 µM | > 100 µM | > 100 µM | > 100 µM | > 100 µM | 38.3 µM | 89.8 µM
O=C(CCc1ccc(O)cc1)NCCCNC(=O)CCc1ccc(O)cc1 | > 100 µM | > 100 µM | > 100 µM | > 100 µM | > 100 µM | > 100 µM | > 100 µM | > 100 µM | > 100 µM | > 100 µM
CC[C@H]1C=CCC[C@@]2(C[C@@H]3CC[C@@H]4[C@H](C(=O)OCCCCCCCCCCCCCCCC(=O)N(CCCNC(C)=O)C[C@H](CCNC(C)=O)OC(C)=O)[C@]5(CCC[C@@H](C)O5)NC(=[N+]34)N2)O1 | 0.647 µM | 2.03 µM | 1.59 µM | 1.9 µM | 2.77 µM | 8.18 µM | 1.84 µM | 2.93 µM | 0.0709 µM | 1.14 µM
O=c1c2c3c(sc2nc2n1N=C(c1ccc([N+](=O)[O-])cc1)CS2)CCCC3 | > 100 µM | > 100 µM | > 100 µM | > 100 µM | > 100 µM | > 100 µM | > 100 µM | > 100 µM | > 100 µM | > 100 µM
CC(=O)OC1OC(c2ccoc2)C[C@@]12C1CCC3O[C@]3(C)[C@]1(C)C[C@H](OC(C)=O)[C@H]2C (stereo not given in full) | > 75 µM | > 75 µM | > 75 µM | > 75 µM | > 75 µM | > 75 µM | > 75 µM | > 75 µM | > 75 µM | > 75 µM
CN(C)/C=C/c1c2c(nc3ccccc13)C(=O)c1ccccc1C2=O | 0.536 µM | 0.622 µM | 2.69 µM | 4.71 µM | 5.19 µM | 5.6 µM | 5.42 µM | 0.882 µM | 0.294 µM | 1.4 µM
COc1cc(Nc2nc3ccccc3nc2C(C)C)cc(OC)c1OC | > 100 µM | > 100 µM | > 100 µM | > 100 µM | > 100 µM | > 100 µM | > 100 µM | > 100 µM | > 100 µM | > 100 µM
CC(=O)OC(=C(C#N)C#N)c1nccnc1C(C)=O | > 20 µM | > 20 µM | > 20 µM | > 20 µM | > 20 µM | > 20 µM | > 20 µM | > 20 µM | > 20 µM | > 20 µM
COC(=O)c1ccc(C)cc1CC1Cc2c(C)cccc2C1=O (stereo not given) | 19.7 µM | 16.1 µM | > 81.9 µM | 80.1 µM | > 100 µM | 17.2 µM | > 91.9 µM | > 46.6 µM | 32.2 µM | > 78.3 µM
C=CCn1c(-c2ccc(Cl)cc2Cl)csc1=Nc1c(C)n(C)n(-c2ccccc2)c1=O | 13.1 µM | 23.7 µM | 27.3 µM | 31.5 µM | 16.6 µM | 34.2 µM | 28.3 µM | 23.4 µM | 23.9 µM | 27.1 µM
Cc1nn(-c2ccccc2)c2nc3ccc(Cl)cc3c(-c3ccccc3)c12 | > 100 µM | > 100 µM | > 100 µM | > 100 µM | > 100 µM | > 100 µM | > 100 µM | > 100 µM | > 100 µM | > 100 µM
COc1ccc(N(C(=O)NCCO)c2ccccc2)cc1 | > 100 µM | > 100 µM | > 100 µM | > 100 µM | > 100 µM | > 100 µM | > 100 µM | > 100 µM | > 100 µM | > 100 µM

SMILES | TGI [1] | TGI [2] | TGI [3] | TGI [4] | TGI [5] | TGI [6] | TGI [7] | TGI [8] | TGI [9] | TGI [10]
C/C(=C1\C(=O)C(c2ccccc2)N(c2ccccc2)C1=O)c1ccc(Cl)cc1 (stereo not given) | 28.3 µM | 30.6 µM | 34 µM | 40.5 µM | 45.3 µM | > 100 µM | 42.8 µM | 31.9 µM | 28.5 µM | > 100 µM
NC(=O)C1CCCN1C(=O)N(CCCl)N=O (stereo not given) | > 100 µM | > 100 µM | > 100 µM | > 100 µM | > 100 µM | > 100 µM | > 100 µM | > 100 µM | > 100 µM | > 100 µM
CC(=O)c1ccccc1NS(=O)(=O)c1ccc2nc(C)n(NS(=O)(=O)c3ccccc3C(C)=O)c(=O)c2c1 | > 100 µM | > 100 µM | > 100 µM | > 100 µM | > 100 µM | > 100 µM | > 100 µM | > 100 µM | > 100 µM | > 100 µM
COc1ccc(-c2cc(-c3ccccc3)nc3c2CC(=O)Nc2ccccc2-3)cc1OC | > 100 µM | > 100 µM | > 100 µM | > 100 µM | > 100 µM | > 100 µM | > 100 µM | > 100 µM | > 100 µM | > 100 µM
NC(=S)N/N=C1\CCCCC1C(O)(C(F)(F)Cl)C(F)(F)Cl (stereo not given) | > 10 µM | > 10 µM | > 10 µM | > 10 µM | > 10 µM | > 10 µM | > 10 µM | > 10 µM | > 10 µM | > 10 µM
CCOP(C)(=O)/C(Cc1ccc(OC)c(OC)c1)=N\O (stereo not given) | > 100 µM | > 100 µM | > 100 µM | > 100 µM | > 100 µM | > 100 µM | > 100 µM | > 100 µM | > 100 µM | > 100 µM
CNc1nc2c(C)ccc3[nH]c(N(C)C)nc3c-2n1 | 50.3 µM | > 100 µM | > 100 µM | > 100 µM | > 100 µM | > 100 µM | 80.9 µM | > 100 µM | > 100 µM | > 100 µM
O[C@H]1[C@H](O)[C@@H](Cn2nnc(-c3ccccc3)c2-c2ccccc2)OCO[C@@H]1Cn1nnc(-c2ccccc2)c1-c1ccccc1 | 10.2 µM | 9.14 µM | 23.2 µM | 14.2 µM | 31.6 µM | > 42.4 µM | 26.9 µM | 26.2 µM | 5.85 µM | 13.4 µM
NC(N)=NS(=O)(=O)c1ccc(NC(=O)c2ccc3nc4ccccc4c(N)c3c2)cc1 | > 100 µM | > 100 µM | > 100 µM | > 100 µM | > 100 µM | > 100 µM | > 100 µM | > 100 µM | > 100 µM | > 100 µM
COc1ccc(/C=C2\CN(C)CC3C2=NN(c2ccccc2)C3c2ccc(OC)cc2)cc1 (stereo not given) | > 100 µM | > 100 µM | > 100 µM | > 100 µM | > 100 µM | > 100 µM | > 100 µM | > 100 µM | > 100 µM | > 100 µM
CSc1ccc2c(cc1=O)[C@@H](NC(=O)c1ccc([N+](=O)[O-])cc1)CCc1cc(O)c(O)c(O)c1-2 | 53.1 µM | 31.1 µM | > 100 µM | > 100 µM | > 100 µM | 53.6 µM | > 100 µM | > 100 µM | > 100 µM | > 100 µM
CC(C)(SCc1ccccc1)C(N)C(=O)O (stereo not given) | > 100 µM | > 100 µM | > 100 µM | > 100 µM | > 100 µM | > 100 µM | > 100 µM | > 100 µM | > 100 µM | > 100 µM
COc1ccc(-c2nc3cc(C(F)(F)F)ccc3n2CC2CCCN3CCCCC23)cc1 (stereo not given) | 27.5 µM | 37.1 µM | 30.8 µM | 26.9 µM | 48.2 µM | 27.1 µM | 39.7 µM | 29 µM | 28.3 µM | 29.2 µM
CC#CCCCC1(C)CCCNC1=S (stereo not given) | > 10 µM | > 10 µM | > 10 µM | > 10 µM | > 10 µM | > 10 µM | > 10 µM | > 10 µM | > 10 µM | > 10 µM
Nc1ccc(OCCCc2c(-c3ccccc3)nc(N)[nH]c2=O)cc1 | > 100 µM | > 100 µM | > 100 µM | > 100 µM | 81.2 µM | > 100 µM | > 100 µM | > 100 µM | > 100 µM | > 100 µM
Cc1cc(=O)c2ccccc2n1CCCCCCCCCCn1c(C)cc(=O)c2ccccc21 | 6.27 µM | > 100 µM | 41.9 µM | 43.8 µM | > 100 µM | > 100 µM | 44.1 µM | 30.9 µM | 17.8 µM | 87.4 µM
CN(C)Cc1cc(C(=O)/C=C/c2ccc(F)cc2)cc(CN(C)C)c1O | 35.5 µM | 50.9 µM | > 100 µM | > 100 µM | 46.3 µM | 86.2 µM | > 100 µM | > 100 µM | 20.7 µM | 22.3 µM
